Target: T1, SARS-CoV-2 Spike (Severe acute respiratory syndrome coronavirus 2, UniProt P0DTC2)
T1 construct: gene S
Test: SPR (Reichert4, CM5 chip, Spike immobilised)
Format: binding

## COc1ccc2cc1Oc1ccc(cc1)C[C@H]1c3cc(c(OC)cc3CCN1C)Oc1c(OC)c(OC)cc3c1[C@H](C2)N(C)CC3 [tetrandrine]
  Kd: ~2.23 µM

From PMC12399569, “Disruption of Spike Priming in Virus Entry: Tetrandrine as a Pan‐Coronavirus Inhibitor” (MedComm, 2025)
